Measurements published in patent US8530489B2 (Vertex Pharmaceuticals Incorporated, priority 2006, dated 2013).

target: PLK1 (Homo sapiens, UniProt P53350); test: PLK1 Inhibition Assay I (radioactive-phosphate incorporation); type: biochemical; conditions: Ki(app); PLK1 Inhibition Assay I or II (table does not say which)
Procedure, shortened: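 Ki(app) values came from non-linear regression of initial rates after background subtraction, with phosphopeptide measured by phosphocellulose filter binding and scintillation counting. PLK1 at 2 nM was preincubated with compound (typically from 10 μM, 2-fold dilutions) for 10 min, then run 240 min at 25° C with 350 μM [γ-33P]ATP and 450 μM peptide substrate in HEPES pH 7.5 buffer.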

Chain of PLK1 (P53350 whole entry): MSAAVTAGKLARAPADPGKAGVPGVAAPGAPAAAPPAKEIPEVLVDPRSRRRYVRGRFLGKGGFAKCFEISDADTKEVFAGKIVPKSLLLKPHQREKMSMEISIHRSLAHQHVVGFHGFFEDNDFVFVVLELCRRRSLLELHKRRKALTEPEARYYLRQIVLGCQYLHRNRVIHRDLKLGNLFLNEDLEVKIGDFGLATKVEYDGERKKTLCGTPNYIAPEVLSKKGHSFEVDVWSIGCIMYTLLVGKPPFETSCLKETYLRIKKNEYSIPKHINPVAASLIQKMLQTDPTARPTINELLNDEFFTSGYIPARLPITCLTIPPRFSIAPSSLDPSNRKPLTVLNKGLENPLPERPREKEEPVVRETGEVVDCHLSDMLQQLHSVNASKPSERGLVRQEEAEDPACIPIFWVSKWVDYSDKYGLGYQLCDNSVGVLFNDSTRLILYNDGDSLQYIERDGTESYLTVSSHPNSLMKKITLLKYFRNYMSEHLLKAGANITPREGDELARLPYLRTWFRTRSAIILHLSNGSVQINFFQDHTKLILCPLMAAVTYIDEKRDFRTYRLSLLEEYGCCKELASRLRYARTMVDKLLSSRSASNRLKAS

C[C@@H](Nc1ncc(C#N)c(-c2c[nH]c3ncc(C(F)(F)F)cc23)n1)C1CCN(CC(N)=O)CC1 [Compound I-218, 2-(4-((1R)-1-(5-cyano-4-(5-(trifluoromethyl)-1H-pyrrolo[2,3-b]pyridin-3-yl)pyrimidin-2-ylamino)ethyl)piperidin-1-yl)acetamide] and C[C@@H](Nc1ncc(C#N)c(-c2c[nH]c3ncc(C(F)(F)F)cc23)n1)C1CCN(C(=O)C(N)=O)CC1 [Compound I-258, 2-(4-((1R)-1-(5-cyano-4-(5-(trifluoromethyl)-1H-pyrrolo[2,3-b]pyridin-3-yl)pyrimidin-2-ylamino)ethyl)piperidin-1-yl)-2-oxoacetamide] cannot be ordered by Ki: under 3 nM for the first, under 3 nM for the second.

N#Cc1cnc(NC2CC2)nc1-c1c[nH]c2ncc(C(F)(F)F)cc12 [Compound I-76, 2-(cyclopropylamino)-4-(5-(trifluoromethyl)-1H-pyrrolo[2,3-b]pyridin-3-yl)pyrimidine-5-carbonitrile] and CNc1ncc(C#N)c(-c2c[nH]c3ncc(C(F)(F)F)cc23)n1 [Compound I-2, 2-(methylamino)-4-(5-(trifluoromethyl)-1H-pyrrolo[2,3-b]pyridin-3-yl)pyrimidine-5-carbonitrile] cannot be ordered by Ki: over 40 nM for the first, over 40 nM for the second.

First: N#Cc1cnc(NCc2nc3ccccc3[nH]2)nc1-c1c[nH]c2ncc(C(F)(F)F)cc12 [Compound I-30, 2-((1H-benzo[d]imidazol-2-yl)methylamino)-4-(5-(trifluoromethyl)-1H-pyrrolo[2,3-b]pyridin-3-yl)pyrimidine-5-carbonitrile]
Second: C[C@@H](Nc1ncc(C#N)c(-c2c[nH]c3ncc(C(F)(F)F)cc23)n1)c1ccccc1 [Compound I-6, 2-((R)-1-phenylethylamino)-4-(5-(trifluoromethyl)-1H-pyrrolo[2,3-b]pyridin-3-yl)pyrimidine-5-carbonitrile]
The Ki of the first is higher: over 40 nM for the first, under 3 nM for the second.

C[C@@H](Nc1ncc(C#N)c(-c2c[nH]c3ncc(C(F)(F)F)cc23)n1)c1ccc(NS(C)(=O)=O)cc1 [Compound I-136, N-(4-((1R)-1-(5-cyano-4-(5-(trifluoromethyl)-1H-pyrrolo[2,3-b]pyridin-3-yl)pyrimidin-2-ylamino)ethyl)phenyl)methanesulfonamide] and C[C@@H](Nc1ncc(C#N)c(-c2c[nH]c3ncc(C(F)(F)F)cc23)n1)c1ccc(S(=O)(=O)N(C)C)cc1 [Compound I-190, 4-((1R)-1-(5-cyano-4-(5-(trifluoromethyl)-1H-pyrrolo[2,3-b]pyridin-3-yl)pyrimidin-2-ylamino)ethyl)-N,N-dimethylbenzenesulfonamide] cannot be ordered by Ki: under 3 nM for the first, under 3 nM for the second.

First: N#Cc1cnc(N2CCC[C@@H]2CN)nc1-c1c[nH]c2ncc(C(F)(F)F)cc12 [Compound I-87, 2-((R)-2-(aminomethyl)pyrrolidin-1-yl)-4-(5-(trifluoromethyl)-1H-pyrrolo[2,3-b]pyridin-3-yl)pyrimidine-5-carbonitrile]
Second: CC[C@@H](C)Nc1ncc(C#N)c(-c2c[nH]c3ncc(C(F)(F)F)cc23)n1 [Compound I-83, 2-(sec-butylamino)-4-(5-(trifluoromethyl)-1H-pyrrolo[2,3-b]pyridin-3-yl)pyrimidine-5-carbonitrile]
The Ki of the first is higher: over 40 nM for the first, under 3 nM for the second. The second binds more tightly here.

First: CCCC(CCO)Sc1ncc(C#N)c(-c2c[nH]c3ncc(C(F)(F)F)cc23)n1 (stereo not drawn) [II-15, 2-(1-hydroxyhexan-3-ylthio)-4-(5-(trifluoromethyl)-1H-pyrrolo[2,3-b]pyridin-3-yl)pyrimidine-5-carbonitrile]
Second: C[C@H](O)[C@@H](CO)Nc1ncc(C#N)c(-c2c[nH]c3ncc(C(F)(F)F)cc23)n1 [Compound I-108, 2-((2R,3S)-1,3-dihydroxybutan-2-ylamino)-4-(5-(trifluoromethyl)-1H-pyrrolo[2,3-b]pyridin-3-yl)pyrimidine-5-carbonitrile]
The Ki of the first is higher: over 40 nM for the first, 3 to 40 nM for the second. The second binds more tightly here.

C[C@H](N)CC(=O)N1CCC([C@@H](C)Nc2ncc(C#N)c(-c3c[nH]c4ncc(C(F)(F)F)cc34)n2)CC1 [Compound I-244, 2-((R)-1-(1-((S)-3-aminobutanoyl)piperidin-4-yl)ethylamino)-4-(5-(trifluoromethyl)-1H-pyrrolo[2,3-b]pyridin-3-yl)pyrimidine-5-carbonitrile] and C[C@H](O)C(=O)N1CCC([C@@H](C)Nc2ncc(C#N)c(-c3c[nH]c4ncc(C(F)(F)F)cc34)n2)CC1 [Compound I-228, 2-((R)-1-(1-((S)-2-hydroxypropanoyl)piperidin-4-yl)ethylamino)-4-(5-(trifluoromethyl)-1H-pyrrolo[2,3-b]pyridin-3-yl)pyrimidine-5-carbonitrile] cannot be ordered by Ki: under 3 nM for the first, under 3 nM for the second.

N#Cc1cnc(NC2(C(=O)NCC(F)(F)F)CCCCC2)nc1-c1c[nH]c2ncc(Cl)cc12 [IA-3, 1-(4-(5-chloro-1H-pyrrolo[2,3-b]pyridin-3-yl)-5-cyanopyrimidin-2-ylamino)-N-(2,2,2-trifluoroethyl)cyclohexanecarboxamide] and CC(C)(Nc1ncc(C#N)c(-c2c[nH]c3ncc(C(F)(F)F)cc23)n1)C(=O)NCC(F)(F)F [IA-0, 2-(5-cyano-4-(5-(trifluoromethyl)-1H-pyrrolo[2,3-b]pyridin-3-yl)pyrimidin-2-ylamino)-2-methyl-N-(2,2,2-trifluoroethyl)propanamide] fall in the same range of Ki: 3 to 40 nM for the first, 3 to 40 nM for the second.

Compared with Cc1ccc(S(=O)(=O)N2CCC(C(C)Nc3ncc(C#N)c(-c4c[nH]c5ncc(C(F)(F)F)cc45)n3)CC2)cc1 (stereo not drawn) [Compound I-165, 2-(1-(1-tosylpiperidin-4-yl)ethylamino)-4-(5-(trifluoromethyl)-1H-pyrrolo[2,3-b]pyridin-3-yl)pyrimidine-5-carbonitrile], CC(Nc1ncc(C#N)c(-c2c[nH]c3ncc(C(F)(F)F)cc23)n1)C1CCN(S(C)(=O)=O)CC1 (stereo not drawn) [Compound I-150, 2-(1-(1-(methylsulfonyl)piperidin-4-yl)ethylamino)-4-(5-(trifluoromethyl)-1H-pyrrolo[2,3-b]pyridin-3-yl)pyrimidine-5-carbonitrile] is lower in Ki: 3 to 40 nM for the first, under 3 nM for the second.

N#Cc1cnc(Oc2ccccc2)nc1-c1c[nH]c2ncc(C(F)(F)F)cc12 [EG4, 2-Phenoxy-4-(5-(trifluoromethyl)-1H-pyrrolo[2,3-b]pyridin-3-yl)pyrimidine-5-carbonitrile] and CC(C)Oc1ccc(CNc2ncc(C#N)c(-c3c[nH]c4ncc(C(F)(F)F)cc34)n2)cc1 [Compound I-41, 2-(4-isopropoxybenzylamino)-4-(5-(trifluoromethyl)-1H-pyrrolo[2,3-b]pyridin-3-yl)pyrimidine-5-carbonitrile] cannot be ordered by Ki: over 40 nM for the first, over 40 nM for the second.

CC(Nc1ncc(C#N)c(-c2c[nH]c3ncc(C(F)(F)F)cc23)n1)C1(F)CCN(C(=O)[C@@H](C)O)CC1 (stereo partly drawn) [Compound I-237, 2-(1-(4-fluoro-1-((R)-2-hydroxypropanoyl)piperidin-4-yl)ethylamino)-4-(5-(trifluoromethyl)-1H-pyrrolo[2,3-b]pyridin-3-yl)pyrimidine-5-carbonitrile] and CC(C)[C@@H](N)C(=O)N1CCC([C@@H](C)Nc2ncc(C#N)c(-c3c[nH]c4ncc(C(F)(F)F)cc34)n2)CC1 [Compound I-229, 2-((R)-1-(1-((R)-2-amino-3-methylbutanoyl)piperidin-4-yl)ethylamino)-4-(5-(trifluoromethyl)-1H-pyrrolo[2,3-b]pyridin-3-yl)pyrimidine-5-carbonitrile] cannot be ordered by Ki: under 3 nM for the first, under 3 nM for the second.

First: C[C@@H](Nc1ncc(C#N)c(-c2c[nH]c3ncc(C(F)(F)F)cc23)n1)c1ccc(C(=O)O)cc1 [Compound I-186, 4-((1R)-1-(5-cyano-4-(5-(trifluoromethyl)-1H-pyrrolo[2,3-b]pyridin-3-yl)pyrimidin-2-ylamino)ethyl)benzoic acid]
Second: C[C@@H](Nc1ncc(C#N)c(-c2c[nH]c3ncc(C(F)(F)F)cc23)n1)c1ccc(OC2CCN(C)CC2)cc1 [Compound I-154, 2-((R)-1-(4-(1-methylpiperidin-4-yloxy)phenyl)ethylamino)-4-(5-(trifluoromethyl)-1H-pyrrolo[2,3-b]pyridin-3-yl)pyrimidine-5-carbonitrile]
The Ki of the first is lower: under 3 nM for the first, 3 to 40 nM for the second. The first binds more tightly here.

C[C@@H](Nc1ncc(C#N)c(-c2c[nH]c3ncc(C(F)(F)F)cc23)n1)C1CCN(C(=O)C2CNC2)CC1 [Compound I-227, 2-((R)-1-(1-(azetidine-3-carbonyl)piperidin-4-yl)ethylamino)-4-(5-(trifluoromethyl)-1H-pyrrolo[2,3-b]pyridin-3-yl)pyrimidine-5-carbonitrile] and CC(Nc1ncc(C#N)c(-c2c[nH]c3ncc(C(F)(F)F)cc23)n1)c1ccc(N2CCC(O)CC2)nc1 (stereo not drawn) [Compound I-162, 2-(1-(6-(4-hydroxypiperidin-1-yl)pyridin-3-yl)ethylamino)-4-(5-(trifluoromethyl)-1H-pyrrolo[2,3-b]pyridin-3-yl)pyrimidine-5-carbonitrile] cannot be ordered by Ki: under 3 nM for the first, under 3 nM for the second.

First: N#Cc1cnc(NCCN2CCSCC2)nc1-c1c[nH]c2ncc(C(F)(F)F)cc12 [Compound I-86, 2-(2-thiomorpholinoethylamino)-4-(5-(trifluoromethyl)-1H-pyrrolo[2,3-b]pyridin-3-yl)pyrimidine-5-carbonitrile]
Second: COCC(Nc1ncc(C#N)c(-c2c[nH]c3ncc(C(F)(F)F)cc23)n1)C(C)C (stereo not drawn) [Compound I-110, 2-(1-methoxy-3-methylbutan-2-ylamino)-4-(5-(trifluoromethyl)-1H-pyrrolo[2,3-b]pyridin-3-yl)pyrimidine-5-carbonitrile]
The Ki of the first is higher: over 40 nM for the first, 3 to 40 nM for the second.

Compared with CC(Nc1ncc(C#N)c(-c2c[nH]c3ncc(C(F)(F)F)cc23)n1)c1ccc(C2(O)CCN(C)CC2)nc1 (stereo not drawn) [Compound I-266, 2-(1-(6-(4-hydroxy-1-methylpiperidin-4-yl)pyridin-3-yl)ethylamino)-4-(5-(trifluoromethyl)-1H-pyrrolo[2,3-b]pyridin-3-yl)pyrimidine-5-carbonitrile], Cc1cnc2[nH]cc(-c3nc(N[C@@H](CO)C(C)C)ncc3C#N)c2c1 [EG8, 2-((R)-1-hydroxy-3-methylbutan-2-ylamino)-4-(5-methyl-1H-pyrrolo[2,3-b]pyridin-3-yl)pyrimidine-5-carbonitrile] is higher in Ki: under 3 nM for the first, 3 to 40 nM for the second. The first binds more tightly here.
